{
  "source": "patent US20230049952A1",
  "about": "“METHODS AND COMPOUNDS FOR RESTORING MUTANT P53 FUNCTION” (PMV Pharmaceuticals, Inc., priority 2020, published 2023)",
  "key": {"[1]": {"assay": "Compound 2 and metabolites in rat plasma, 50 mg/kg PO QD×10", "assay_type": "in vivo", "conditions": "for Average Concentration: rat plasma", "method": "The proposed metabolite pathway was determined in vitro, and levels of potential metabolites were measured by LC/MS-MS in rat plasma remaining from the dose rising 10-day repeat dose study in rats. Six potential metabolites were quantified in the low (50 mg/kg) single dose rats. […] Rats were rotated between timepoints to form a composite PK curve. […] A 100 μL aliquot of the supernatant was transferred to the sample plate and mixed with 100 μL of water, then the plate was shaken at 800 rpm for 10 min. 0.5-2 μL supernatant was then injected into a Triple Quad 6500+ for LC-MS/MS analysis. The standard curve was generated at 1-3000 ng/mL for the compounds in rat plasma (EDTA-K2).\nThe male and female PK parameters were averaged together since there was <2-fold variation between the genders. All values deemed below the level of quantification (BLQ) were excluded from the PK parameters calculations."}, "NUGC-3_KO_p53i": {"test_system": "NUGC-3_KO_p53i", "assay": "p53 pathway gene profiling, doxycycline-induced WT p53", "assay_type": "cell-based, human", "conditions": "doxycycline 50 ng/ml"}, "[2]": {"conditions": "Compound 2 50 mg/kg PO QD×10, 72 h post tenth dose"}, "[3]": {"conditions": "Compound 2 50 mg/kg PO QD×10, 96 h post tenth dose"}, "[4]": {"conditions": "n=3, * basal expression level is low"}},
  "note": "Several values for one entry are separate records, joined by “and”; a condition that tells them apart may be missing. Identical values can stand only once.",
  "data": [
    {"smiles": "CCn1c(C#CCNc2ccc(C)nc2)cc2cc(CNC3CCOCC3)ccc21", "note": "[Compound 8, 3-{1-Ethyl-5-[(tetrahydro-2H-pyran-4-ylamino)methyl]-1H-indol-2-yl}-1-(6-methyl-3-pyridylamino)-2-propyne]", "values": [
      {"measurement": "calculated concentration in rat plasma (individual rats)", "setting": "[1]; Compound 2 50 mg/kg PO QD×1, 1 h, 50 mg/kg", "result": "28.5 ng/mL and 16.5 ng/mL and 13.4 ng/mL and 8.05 ng/mL and 22.8 ng/mL and 22.6 ng/mL"},
      {"measurement": "calculated concentration in rat plasma (individual rats)", "setting": "[1]; Compound 2 50 mg/kg PO QD×1, 2 h, 50 mg/kg", "result": "88.9 ng/mL and 36.3 ng/mL and 32.5 ng/mL and 78.0 ng/mL and 62.0 ng/mL and 51.5 ng/mL"},
      {"measurement": "calculated concentration in rat plasma (individual rats)", "setting": "[1]; Compound 2 50 mg/kg PO QD×1, 4 h, 50 mg/kg", "result": "84.8 ng/mL and 81.1 ng/mL and 34.9 ng/mL and 38.5 ng/mL and 52.9 ng/mL and 58.3 ng/mL"},
      {"measurement": "calculated concentration in rat plasma (individual rats)", "setting": "[1]; Compound 2 50 mg/kg PO QD×1, 8 h, 50 mg/kg", "result": "77.5 ng/mL and 46.5 ng/mL and 86.3 ng/mL and 203 ng/mL and 87.6 ng/mL and 73.8 ng/mL"},
      {"measurement": "calculated concentration in rat plasma (individual rats)", "setting": "[1]; Compound 2 50 mg/kg PO QD×1, 24 h, 50 mg/kg", "result": "2.71 ng/mL and 1.20 ng/mL and 1.36 ng/mL and 2.31 ng/mL and 2.43 ng/mL and 1.25 ng/mL"},
      {"measurement": "calculated concentration in rat plasma (individual rats)", "setting": "[1]; Compound 2 50 mg/kg PO QD×10, 1 h post tenth dose, 50 mg/kg", "result": "16.5 ng/mL and 6.52 ng/mL and 10.4 ng/mL and 6.59 ng/mL and 46.7 ng/mL and 24.4 ng/mL"},
      {"measurement": "calculated concentration in rat plasma (individual rats)", "setting": "[1]; Compound 2 50 mg/kg PO QD×10, 2 h post tenth dose, 50 mg/kg", "result": "14.6 ng/mL and 17.1 ng/mL and 27.6 ng/mL and 38.9 ng/mL and 57.5 ng/mL and 24.2 ng/mL"},
      {"measurement": "calculated concentration in rat plasma (individual rats)", "setting": "[1]; Compound 2 50 mg/kg PO QD×10, 4 h post tenth dose, 50 mg/kg", "result": "39.0 ng/mL and 39.4 ng/mL and 22.5 ng/mL and 92.1 ng/mL and 65.1 ng/mL and 19.9 ng/mL"},
      {"measurement": "calculated concentration in rat plasma (individual rats)", "setting": "[1]; Compound 2 50 mg/kg PO QD×10, 8 h post tenth dose, 50 mg/kg", "result": "29.5 ng/mL and 35.5 ng/mL and 57.2 ng/mL and 121 ng/mL and 135 ng/mL and 67.6 ng/mL"},
      {"measurement": "calculated concentration in rat plasma (individual rats)", "setting": "[1]; Compound 2 50 mg/kg PO QD×10, 24 h post tenth dose, 50 mg/kg", "result": "1.63 ng/mL and 2.61 ng/mL and 2.12 ng/mL and 10.6 ng/mL and 7.70 ng/mL and 8.00 ng/mL"},
      {"measurement": "calculated concentration in rat plasma (individual rats)", "setting": "[1]; Compound 2 50 mg/kg PO QD×10, 48 h post tenth dose, 50 mg/kg", "result": "BLQ (4×) and 1.01 ng/mL and 1.21 ng/mL"},
      {"measurement": "calculated concentration in rat plasma (individual rats)", "setting": "[1]; [2]", "result": "BLQ"},
      {"measurement": "calculated concentration in rat plasma (individual rats)", "setting": "[1]; [3]", "result": "BLQ"},
      {"measurement": "% of Parent", "setting": "[1]; Day 1, of Compound 2 AUC0-24, rat, 50 mg/kg PO", "result": 1.6, "unit": "%"},
      {"measurement": "AUC0-24", "setting": "[1]; Day 1, rat, Compound 2 50 mg/kg PO", "result": 1254, "unit": "ng·h/mL"},
      {"measurement": "% of Parent", "setting": "[1]; Day 10, of Compound 2 AUC0-last, rat, 50 mg/kg PO QD×10", "result": 0.9, "unit": "%"},
      {"measurement": "AUC0-last", "setting": "[1]; Day 10, rat, Compound 2 50 mg/kg PO QD×10", "result": 1021, "unit": "ng·h/mL"},
      {"measurement": "Average Concentration", "setting": "[1]; Compound 2 50 mg/kg PO QD×1, 1 h", "result": 18.64, "unit": "ng/mL"},
      {"measurement": "Average Concentration", "setting": "[1]; Compound 2 50 mg/kg PO QD×1, 2 h", "result": 58.20, "unit": "ng/mL"},
      {"measurement": "Average Concentration", "setting": "[1]; Compound 2 50 mg/kg PO QD×1, 4 h", "result": 58.42, "unit": "ng/mL"},
      {"measurement": "Average Concentration", "setting": "[1]; Compound 2 50 mg/kg PO QD×1, 8 h", "result": 95.78, "unit": "ng/mL"},
      {"measurement": "Average Concentration", "setting": "[1]; Compound 2 50 mg/kg PO QD×1, 24 h", "result": 1.88, "unit": "ng/mL"},
      {"measurement": "Average Concentration", "setting": "[1]; Compound 2 50 mg/kg PO QD×10, 1 h post tenth dose", "result": 18.52, "unit": "ng/mL"},
      {"measurement": "Average Concentration", "setting": "[1]; Compound 2 50 mg/kg PO QD×10, 2 h post tenth dose", "result": 29.98, "unit": "ng/mL"},
      {"measurement": "Average Concentration", "setting": "[1]; Compound 2 50 mg/kg PO QD×10, 4 h post tenth dose", "result": 46.33, "unit": "ng/mL"},
      {"measurement": "Average Concentration", "setting": "[1]; Compound 2 50 mg/kg PO QD×10, 8 h post tenth dose", "result": 74.30, "unit": "ng/mL"},
      {"measurement": "Average Concentration", "setting": "[1]; Compound 2 50 mg/kg PO QD×10, 24 h post tenth dose", "result": 5.44, "unit": "ng/mL"},
      {"measurement": "Average Concentration", "setting": "[1]; Compound 2 50 mg/kg PO QD×10, 48 h post tenth dose", "result": 1.11, "unit": "ng/mL"},
      {"measurement": "Average Concentration", "setting": "[1]; [2]", "result": "BLQ"},
      {"measurement": "Average Concentration", "setting": "[1]; [3]", "result": "BLQ"}
    ]},
    {"smiles": "C[C@H]1c2cccc(O)c2C(=O)C2=C(O)[C@]3(O)C(=O)C(C(N)=O)=C(O)[C@@H](N(C)C)[C@@H]3[C@@H](O)[C@@H]21", "note": "[Doxycycline]", "values": [
      {"measurement": "APAF1 fold change", "setting": "NUGC-3_KO_p53i; n=3", "result": "2.40 ± 0.16", "unit": "fold"},
      {"measurement": "BAX fold change", "setting": "NUGC-3_KO_p53i; n=3", "result": "2.85 ± 0.08", "unit": "fold"},
      {"measurement": "BBC3 fold change", "setting": "NUGC-3_KO_p53i; n=3", "result": "2.46 ± 0.06", "unit": "fold"},
      {"measurement": "BIRC5 fold change", "setting": "NUGC-3_KO_p53i; n=3", "result": "0.52 ± 0.03", "unit": "fold"},
      {"measurement": "BRCA1 fold change", "setting": "NUGC-3_KO_p53i; n=3", "result": "0.67 ± 0.03", "unit": "fold"},
      {"measurement": "BRCA2 fold change", "setting": "NUGC-3_KO_p53i; n=3", "result": "0.74 ± 0.02", "unit": "fold"},
      {"measurement": "CCNB1 fold change", "setting": "NUGC-3_KO_p53i; n=3", "result": "0.57 ± 0.01", "unit": "fold"},
      {"measurement": "CCNE 1 fold change", "setting": "NUGC-3_KO_p53i; n=3", "result": "0.70 ± 0.01", "unit": "fold"},
      {"measurement": "CCNG 1 fold change", "setting": "NUGC-3_KO_p53i; n=3", "result": "1.65 ± 0.05", "unit": "fold"},
      {"measurement": "CDC25A fold change", "setting": "NUGC-3_KO_p53i; n=3", "result": "0.61 ± 0.04", "unit": "fold"},
      {"measurement": "CDC25C fold change", "setting": "NUGC-3_KO_p53i; n=3", "result": "0.58 ± 0.02", "unit": "fold"},
      {"measurement": "CDK1 fold change", "setting": "NUGC-3_KO_p53i; n=3", "result": "0.71 ± 0.01", "unit": "fold"},
      {"measurement": "CDKN1A fold change", "setting": "NUGC-3_KO_p53i; n=3", "result": "37.37 ± 0.55", "unit": "fold"},
      {"measurement": "CHEK1 fold change", "setting": "NUGC-3_KO_p53i; n=3", "result": "0.71 ± 0.02", "unit": "fold"},
      {"measurement": "CHEK2 fold change", "setting": "NUGC-3_KO_p53i; n=3", "result": "0.74 ± 0.01", "unit": "fold"},
      {"measurement": "DNMT1 fold change", "setting": "NUGC-3_KO_p53i; n=3", "result": "0.78 ± 0.03", "unit": "fold"},
      {"measurement": "E2F1 fold change", "setting": "NUGC-3_KO_p53i; n=3", "result": "0.63 ± 0.02", "unit": "fold"},
      {"measurement": "FAS fold change", "setting": "NUGC-3_KO_p53i; n=3", "result": "7.34 ± 0.04", "unit": "fold"},
      {"measurement": "GADD45A fold change", "setting": "NUGC-3_KO_p53i; n=3", "result": "3.68 ± 0.20", "unit": "fold"},
      {"measurement": "MDM2 fold change", "setting": "NUGC-3_KO_p53i; n=3", "result": "12.97 ± 0.29", "unit": "fold"},
      {"measurement": "MSH2 fold change", "setting": "NUGC-3_KO_p53i; n=3", "result": "0.70 ± 0.02", "unit": "fold"},
      {"measurement": "PIDD1 fold change", "setting": "NUGC-3_KO_p53i; n=3", "result": "2.75 ± 0.05", "unit": "fold"},
      {"measurement": "PPM1D fold change", "setting": "NUGC-3_KO_p53i; n=3", "result": "2.21 ± 0.10", "unit": "fold"},
      {"measurement": "PRC1 fold change", "setting": "NUGC-3_KO_p53i; n=3", "result": "0.64 ± 0.01", "unit": "fold"},
      {"measurement": "SESN2 fold change", "setting": "NUGC-3_KO_p53i; n=3", "result": "2.50 ± 0.12", "unit": "fold"},
      {"measurement": "TNFRSF10B fold change", "setting": "NUGC-3_KO_p53i; n=3", "result": "1.88 ± 0.04", "unit": "fold"},
      {"measurement": "TNFRSF10D fold change", "setting": "NUGC-3_KO_p53i; n=3", "result": "2.73 ± 0.04", "unit": "fold"},
      {"measurement": "TP53 fold change", "setting": "NUGC-3_KO_p53i; n=3", "result": "25.95 ± 0.84", "unit": "fold"},
      {"measurement": "BTG2* fold change", "setting": "NUGC-3_KO_p53i; [4]", "result": "27.82 ± 2.42", "unit": "fold"},
      {"measurement": "EGR1* fold change", "setting": "NUGC-3_KO_p53i; [4]", "result": "4.40 ± 0.50", "unit": "fold"},
      {"measurement": "IL6* fold change", "setting": "NUGC-3_KO_p53i; [4]", "result": "1.23 ± 0.01", "unit": "fold"}
    ]}
  ]
}
